Assay results reported in BindingDB's records for doi:10.1021/acsmedchemlett.9b00615 (University of Manchester, 2020).

Assays:
[1] = Inhibition of KDR (unknown origin) expressed in […] cells assessed as reduction in cell viability incubated for 48 hrs by celltiter glo luminescence cell viability assay
[2] = Inhibition of RET (unknown origin) expressed in […] cells assessed as reduction in cell viability incubated for 48 hrs by celltiter glo luminescence cell viability assay

CN(C)CCCNc1ccn2ncc(-c3ccc4c(c3)OCO4)c2n1
IC50 [1]: 9 µM | IC50 [2]: 4 µM
